In PubChem BioAssay (NCI):
Where “and” joins values, the source holds several entries; their conditions need not be identical. Identical values can stand only once.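 Protocol summary: plate cells (96-well), add compound at 5 concentrations, incubate 48 h, interpolate endpoints linearly. GI50 is the concentration that inhibits growth by half. TGI denotes the concentration required for complete inhibition of growth.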

Assays:
Test in all cases: NCI tumour cell line growth inhibition, 48 h
A498 renal = test system: A498 renal
A549 NSCLC = test system: A549 NSCLC
CAKI-1 renal = test system: CAKI-1 renal
CCRF-CEM leukemia = test system: CCRF-CEM leukemia
COLO 205 colon = test system: COLO 205 colon
DLD-1 colon = test system: DLD-1 colon
DMS 273 small cell lung = test system: DMS 273 small cell lung
EKVX NSCLC = test system: EKVX NSCLC
HCC-2998 colon = test system: HCC-2998 colon
HCT-116 colon = test system: HCT-116 colon
HCT-15 colon = test system: HCT-15 colon
HOP-18 NSCLC = test system: HOP-18 NSCLC
HOP-62 NSCLC = test system: HOP-62 NSCLC
HOP-92 NSCLC = test system: HOP-92 NSCLC
HT29 colon = test system: HT29 colon
IGROV1 ovarian = test system: IGROV1 ovarian
K-562 leukemia = test system: K-562 leukemia
KM12 colon = test system: KM12 colon
KM20L2 colon = test system: KM20L2 colon
LOX IMVI melanoma = test system: LOX IMVI melanoma
M19-MEL melanoma = test system: M19-MEL melanoma
MALME-3M melanoma = test system: MALME-3M melanoma
MCF7 breast = test system: MCF7 breast
MOLT-4 leukemia = test system: MOLT-4 leukemia
NCI-H226 lung = test system: NCI-H226 lung
NCI-H23 lung = test system: NCI-H23 lung
NCI-H460 lung = test system: NCI-H460 lung
NCI-H522 lung = test system: NCI-H522 lung
NCI/ADR-RES ovarian = test system: NCI/ADR-RES ovarian
OVCAR-3 ovarian = test system: OVCAR-3 ovarian
OVCAR-4 ovarian = test system: OVCAR-4 ovarian
OVCAR-5 ovarian = test system: OVCAR-5 ovarian
OVCAR-8 ovarian = test system: OVCAR-8 ovarian
P388/ADR leukemia = test system: P388/ADR leukemia
RPMI-8226 leukemia = test system: RPMI-8226 leukemia
RXF 393 renal = test system: RXF 393 renal
SF-268 CNS = test system: SF-268 CNS
SF-295 CNS = test system: SF-295 CNS
SF-539 CNS = test system: SF-539 CNS
SK-MEL-2 melanoma = test system: SK-MEL-2 melanoma
SK-MEL-28 melanoma = test system: SK-MEL-28 melanoma
SK-MEL-5 melanoma = test system: SK-MEL-5 melanoma
SK-OV-3 ovarian = test system: SK-OV-3 ovarian
SN12C renal = test system: SN12C renal
SN12K1 renal = test system: SN12K1 renal
SNB-19 CNS = test system: SNB-19 CNS
SNB-75 CNS = test system: SNB-75 CNS
SNB-78 CNS = test system: SNB-78 CNS
SW-620 colon = test system: SW-620 colon
U251 CNS = test system: U251 CNS
UACC-257 melanoma = test system: UACC-257 melanoma
UACC-62 melanoma = test system: UACC-62 melanoma
UO-31 renal = test system: UO-31 renal
XF 498 CNS = test system: XF 498 CNS
786-0 renal = test system: 786-0 renal
ACHN renal = test system: ACHN renal
BT-549 breast = test system: BT-549 breast
DU-145 prostate = test system: DU-145 prostate
HS 578T breast = test system: HS 578T breast
M14 melanoma = test system: M14 melanoma
MDA-MB-435 = test system: MDA-MB-435
MDA-N = test system: MDA-N
PC-3 prostate = test system: PC-3 prostate
SR leukemia = test system: SR leukemia
T-47D breast = test system: T-47D breast
TK-10 renal = test system: TK-10 renal
DMS 114 small cell lung = test system: DMS 114 small cell lung
HL-60(TB) leukemia = test system: HL-60(TB) leukemia
LXFL 529 NSCLC = test system: LXFL 529 NSCLC
RXF-631 renal = test system: RXF-631 renal

Compound: CCCCS(=O)(=O)Nc1ccc(Nc2c3ccccc3nc3ccccc23)c(OC)c1
- TGI (A498 renal): 9.85 µM
- TGI (A549 NSCLC): 7.07 µM
- TGI (CAKI-1 renal): 10.1 µM
- TGI (CCRF-CEM leukemia): 6.26 µM
- TGI (COLO 205 colon): 20.2 µM
- TGI (DLD-1 colon): 24.4 µM
- TGI (DMS 273 small cell lung): 3.37 µM
- TGI (EKVX NSCLC): 14.4 µM
- TGI (HCC-2998 colon): 16.7 µM
- TGI (HCT-116 colon): 8.11 µM
- TGI (HCT-15 colon): 9.11 µM
- TGI (HOP-18 NSCLC): 19.8 µM
- TGI (HOP-62 NSCLC): 10.7 µM
- TGI (HOP-92 NSCLC): 9.08 µM
- TGI (HT29 colon): 6.37 µM
- TGI (IGROV1 ovarian): 24.9 µM
- TGI (K-562 leukemia): 16.5 µM
- TGI (KM12 colon): 14.8 µM
- TGI (KM20L2 colon): 11.9 µM
- TGI (LOX IMVI melanoma): 3.85 µM
- TGI (M19-MEL melanoma): 19.6 µM
- TGI (MALME-3M melanoma): 7.99 µM
- TGI (MCF7 breast): 17.4 µM
- TGI (MOLT-4 leukemia): 3.97 µM
- TGI (NCI-H226 lung): 16.9 µM
- TGI (NCI-H23 lung): 11.3 µM
- TGI (NCI-H460 lung): 5.79 µM
- TGI (NCI-H522 lung): 18.7 µM
- TGI (NCI/ADR-RES ovarian): 22 µM
- TGI (OVCAR-3 ovarian): 16.3 µM
- TGI (OVCAR-4 ovarian): 18.8 µM
- TGI (OVCAR-5 ovarian): 26.6 µM
- TGI (OVCAR-8 ovarian): 13.3 µM
- TGI (P388/ADR leukemia): 2.88 µM
- TGI (RPMI-8226 leukemia): > 21.4 µM
- TGI (RXF 393 renal): 11 µM
- TGI (SF-268 CNS): 14.5 µM
- TGI (SF-295 CNS): 9.84 µM
- TGI (SF-539 CNS): 5.98 µM
- TGI (SK-MEL-2 melanoma): 30.9 µM
- TGI (SK-MEL-28 melanoma): 16.4 µM
- TGI (SK-MEL-5 melanoma): 18.1 µM
- TGI (SK-OV-3 ovarian): 16.9 µM
- TGI (SN12C renal): 5.77 µM
- TGI (SN12K1 renal): 3.55 µM
- TGI (SNB-19 CNS): 14.5 µM
- TGI (SNB-75 CNS): 7.69 µM
- TGI (SNB-78 CNS): 18.9 µM
- TGI (SW-620 colon): 14.2 µM
- TGI (U251 CNS): 5.85 µM
- TGI (UACC-257 melanoma): 18.6 µM
- TGI (UACC-62 melanoma): 7.48 µM
- TGI (UO-31 renal): 10.2 µM
- TGI (XF 498 CNS): 10.5 µM

Compound: COc1cc2cc(c1Cl)N(C)C(=O)C[C@H](OC(=O)[C@H](C)N(C)C(C)=O)[C@]1(C)O[C@H]1[C@H](C)[C@@H]1C[C@@](O)(NC(=O)O1)[C@H](OC)C=C/C=C(\C)C2
- GI50 (786-0 renal): 0.0019 µM
- GI50 (ACHN renal): 0.00211 µM
- TGI (ACHN renal): 0.0595 µM
- GI50 (BT-549 breast): 0.000623 µM
- GI50 (DU-145 prostate): 0.0553 µM
- TGI (HOP-18 NSCLC): > 95.6 µM and 239 µM
- GI50 (HS 578T breast): 0.000745 µM
- GI50 (M14 melanoma): 0.00128 µM
- GI50 (MDA-MB-435): 0.00168 µM
- TGI (MDA-MB-435): 0.00755 µM and < 0.0146 µM
- TGI (MDA-N): 0.0709 µM and 0.0274 µM
- TGI (P388/ADR leukemia): 1.87 µM and 9.07 µM
- GI50 (PC-3 prostate): 0.0371 µM
- GI50 (SR leukemia): 0.000336 µM
- TGI (SR leukemia): 0.0106 µM
- GI50 (T-47D breast): 0.0142 µM
- TGI (T-47D breast): 0.0714 µM
- GI50 (TK-10 renal): 0.0144 µM
- TGI (TK-10 renal): 0.0804 µM

Compound: CC(C)(C)C(=O)O[C@@H]1COC2C(O)COC21 (some centres undefined)
- TGI (786-0 renal): > 100 µM
- TGI (A549 NSCLC): > 100 µM
- TGI (ACHN renal): > 100 µM
- TGI (CAKI-1 renal): > 100 µM
- TGI (CCRF-CEM leukemia): > 100 µM
- TGI (COLO 205 colon): > 100 µM
- TGI (DLD-1 colon): > 100 µM
- TGI (DMS 114 small cell lung): > 100 µM
- TGI (DMS 273 small cell lung): > 100 µM
- TGI (HCC-2998 colon): > 100 µM
- TGI (HCT-116 colon): > 100 µM
- TGI (HL-60(TB) leukemia): > 100 µM
- TGI (HOP-18 NSCLC): > 100 µM
- TGI (HOP-62 NSCLC): > 100 µM
- TGI (HOP-92 NSCLC): > 100 µM
- TGI (HT29 colon): > 100 µM
- TGI (IGROV1 ovarian): > 100 µM
- TGI (K-562 leukemia): > 100 µM
- TGI (KM12 colon): > 100 µM
- TGI (LOX IMVI melanoma): > 100 µM
- TGI (LXFL 529 NSCLC): > 100 µM
- TGI (M14 melanoma): > 100 µM
- TGI (M19-MEL melanoma): > 100 µM
- TGI (MALME-3M melanoma): > 100 µM
- TGI (MOLT-4 leukemia): 49 µM
- TGI (NCI-H23 lung): > 100 µM
- TGI (NCI-H460 lung): > 100 µM
- TGI (NCI-H522 lung): > 100 µM
- TGI (OVCAR-3 ovarian): > 100 µM
- TGI (OVCAR-4 ovarian): > 100 µM
- TGI (OVCAR-5 ovarian): > 100 µM
- TGI (OVCAR-8 ovarian): > 100 µM
- TGI (RXF 393 renal): > 100 µM
- TGI (RXF-631 renal): > 100 µM
- TGI (SF-268 CNS): > 100 µM
- TGI (SF-295 CNS): > 100 µM
- TGI (SF-539 CNS): > 100 µM
- TGI (SK-MEL-28 melanoma): > 100 µM
- TGI (SK-MEL-5 melanoma): > 100 µM
- TGI (SN12C renal): > 100 µM
- TGI (SNB-19 CNS): > 100 µM
- TGI (SNB-75 CNS): > 100 µM
- TGI (SNB-78 CNS): > 100 µM
- TGI (SR leukemia): > 100 µM
- TGI (SW-620 colon): > 100 µM
- TGI (TK-10 renal): > 100 µM
- TGI (U251 CNS): > 100 µM
- TGI (UACC-257 melanoma): > 100 µM
- TGI (UACC-62 melanoma): > 100 µM
- TGI (UO-31 renal): > 100 µM
- TGI (XF 498 CNS): > 100 µM
